For twelve compounds, inhibition results are on record in ChEMBL document CHEMBL1649420, “Identifying chelators for metalloprotein inhibitors using a fragment-based approach” (J Med Chem, 2011).

Test [1] concerns the target 72 kDa type IV collagenase (Homo sapiens, UniProt P08253). The conditions noted are these: at 1 mM.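 Also: recombinant human enzyme, inhibition read after a 30 min incubation.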
The target in test [2] is T1, Nitric oxide synthase, inducible (Mus musculus) (UniProt P29477).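 Also: recombinant enzyme, activity read out colorimetrically after 40 min.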
T1 sequence (whole entry): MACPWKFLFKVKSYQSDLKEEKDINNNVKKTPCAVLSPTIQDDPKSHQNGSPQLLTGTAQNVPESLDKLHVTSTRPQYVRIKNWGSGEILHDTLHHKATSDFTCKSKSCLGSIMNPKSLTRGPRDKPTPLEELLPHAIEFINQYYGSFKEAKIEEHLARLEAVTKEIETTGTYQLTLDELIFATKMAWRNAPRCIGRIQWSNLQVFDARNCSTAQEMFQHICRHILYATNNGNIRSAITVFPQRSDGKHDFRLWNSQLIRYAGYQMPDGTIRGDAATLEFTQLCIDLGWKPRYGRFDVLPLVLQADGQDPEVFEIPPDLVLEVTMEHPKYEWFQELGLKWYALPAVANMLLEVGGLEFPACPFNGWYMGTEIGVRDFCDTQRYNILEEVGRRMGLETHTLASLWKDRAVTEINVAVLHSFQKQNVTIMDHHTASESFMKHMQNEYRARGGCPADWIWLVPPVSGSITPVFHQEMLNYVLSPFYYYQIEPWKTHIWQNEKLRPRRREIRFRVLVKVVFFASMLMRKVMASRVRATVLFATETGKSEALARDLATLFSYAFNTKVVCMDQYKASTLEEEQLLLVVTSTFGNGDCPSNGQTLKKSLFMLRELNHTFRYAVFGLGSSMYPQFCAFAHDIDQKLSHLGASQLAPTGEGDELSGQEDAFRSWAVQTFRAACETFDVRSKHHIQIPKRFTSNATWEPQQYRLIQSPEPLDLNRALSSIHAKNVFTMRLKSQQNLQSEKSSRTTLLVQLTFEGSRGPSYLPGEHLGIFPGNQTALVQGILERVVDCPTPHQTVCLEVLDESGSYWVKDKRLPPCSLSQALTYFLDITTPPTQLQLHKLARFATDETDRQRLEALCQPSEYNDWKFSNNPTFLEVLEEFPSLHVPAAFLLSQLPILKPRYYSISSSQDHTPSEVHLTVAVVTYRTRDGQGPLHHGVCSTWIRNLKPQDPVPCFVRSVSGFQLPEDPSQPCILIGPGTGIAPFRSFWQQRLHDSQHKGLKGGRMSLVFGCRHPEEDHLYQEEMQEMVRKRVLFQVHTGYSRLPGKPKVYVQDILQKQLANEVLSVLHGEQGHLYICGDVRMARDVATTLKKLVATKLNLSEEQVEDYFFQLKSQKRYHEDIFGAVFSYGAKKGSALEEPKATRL
The following applies: at 1 mM.

Test [3] concerns the target T2, Lethal factor (Bacillus anthracis) (UniProt P15917).
T2 sequence (whole entry): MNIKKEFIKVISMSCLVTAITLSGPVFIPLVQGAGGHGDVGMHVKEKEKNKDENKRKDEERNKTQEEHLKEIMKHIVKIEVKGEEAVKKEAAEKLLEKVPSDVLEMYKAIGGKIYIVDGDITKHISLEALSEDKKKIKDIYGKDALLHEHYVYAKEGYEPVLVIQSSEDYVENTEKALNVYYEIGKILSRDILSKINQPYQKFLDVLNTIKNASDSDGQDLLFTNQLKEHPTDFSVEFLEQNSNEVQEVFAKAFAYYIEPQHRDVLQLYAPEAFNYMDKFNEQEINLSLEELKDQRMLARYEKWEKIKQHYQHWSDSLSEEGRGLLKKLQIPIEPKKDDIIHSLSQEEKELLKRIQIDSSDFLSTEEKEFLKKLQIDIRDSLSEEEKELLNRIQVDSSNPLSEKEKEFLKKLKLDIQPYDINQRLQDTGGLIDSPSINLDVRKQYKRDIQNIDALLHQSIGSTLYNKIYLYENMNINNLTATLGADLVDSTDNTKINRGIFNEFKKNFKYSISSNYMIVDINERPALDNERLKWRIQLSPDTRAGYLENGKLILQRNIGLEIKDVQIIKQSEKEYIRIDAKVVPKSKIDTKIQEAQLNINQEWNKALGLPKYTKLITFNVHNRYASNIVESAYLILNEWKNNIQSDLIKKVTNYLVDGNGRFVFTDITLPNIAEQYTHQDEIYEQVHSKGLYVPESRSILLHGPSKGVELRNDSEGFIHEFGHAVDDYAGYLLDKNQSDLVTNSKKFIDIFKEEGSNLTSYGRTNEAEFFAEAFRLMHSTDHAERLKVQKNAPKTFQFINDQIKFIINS
The conditions noted are these: at 1 mM.

The target in test [4] is T3, Interstitial collagenase (Homo sapiens) (UniProt P03956).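 Also: recombinant human enzyme, with inhibition measured after 30 min.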
T3 sequence (whole entry): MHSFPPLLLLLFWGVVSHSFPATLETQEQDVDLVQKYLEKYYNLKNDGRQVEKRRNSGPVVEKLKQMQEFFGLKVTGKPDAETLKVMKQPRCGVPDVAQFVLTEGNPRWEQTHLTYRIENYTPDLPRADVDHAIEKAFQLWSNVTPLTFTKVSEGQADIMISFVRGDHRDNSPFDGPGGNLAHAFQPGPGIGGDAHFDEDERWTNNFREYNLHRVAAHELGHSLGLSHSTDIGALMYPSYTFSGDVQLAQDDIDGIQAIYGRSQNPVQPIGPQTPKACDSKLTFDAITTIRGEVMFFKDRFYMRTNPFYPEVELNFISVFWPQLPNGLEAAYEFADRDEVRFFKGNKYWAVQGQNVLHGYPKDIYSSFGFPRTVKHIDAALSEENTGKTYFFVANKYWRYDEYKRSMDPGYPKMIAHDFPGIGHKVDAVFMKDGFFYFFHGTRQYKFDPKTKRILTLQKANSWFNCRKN
The conditions noted are these: at 1 mM.

Test [5] concerns the target Matrix metalloproteinase-9 (Homo sapiens) (UniProt P14780). The conditions noted are these: at 1 mM.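 Also: recombinant human MMP9, activity read after 30 min.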
Test [6] addresses T4, Polyunsaturated fatty acid 5-lipoxygenase (Homo sapiens) (UniProt P09917).
T4 sequence (whole entry): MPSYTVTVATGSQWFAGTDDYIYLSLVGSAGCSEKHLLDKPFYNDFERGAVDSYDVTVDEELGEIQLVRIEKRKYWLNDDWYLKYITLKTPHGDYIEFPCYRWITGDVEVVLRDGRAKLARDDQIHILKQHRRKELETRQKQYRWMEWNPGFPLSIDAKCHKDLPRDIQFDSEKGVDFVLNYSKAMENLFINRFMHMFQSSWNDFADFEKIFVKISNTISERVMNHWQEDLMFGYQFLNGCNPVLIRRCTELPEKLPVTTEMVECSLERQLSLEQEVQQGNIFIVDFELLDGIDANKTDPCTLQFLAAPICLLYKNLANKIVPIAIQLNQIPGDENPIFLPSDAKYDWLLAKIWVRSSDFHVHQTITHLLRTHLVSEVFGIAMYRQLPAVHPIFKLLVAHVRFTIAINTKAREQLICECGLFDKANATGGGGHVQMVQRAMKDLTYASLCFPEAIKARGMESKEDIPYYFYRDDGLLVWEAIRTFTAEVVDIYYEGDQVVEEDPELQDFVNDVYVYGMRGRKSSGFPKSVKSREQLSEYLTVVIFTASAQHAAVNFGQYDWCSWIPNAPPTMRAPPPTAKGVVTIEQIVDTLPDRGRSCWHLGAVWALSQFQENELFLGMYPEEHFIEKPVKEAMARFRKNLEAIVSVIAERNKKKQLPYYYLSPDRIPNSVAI
Nature of the test: Inhibition of human recombinant 5-lipoxygenase at 1 mM after 10 mins by fluorescence assay.

In test [7] the target is Stromelysin-1 (Homo sapiens) (UniProt P08254). The conditions noted are these: at 1 mM.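 Also: recombinant enzyme, inhibition read after a 30 min incubation.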
Chain of Stromelysin-1 (Homo sapiens) (P08254 100-477 limits assumed): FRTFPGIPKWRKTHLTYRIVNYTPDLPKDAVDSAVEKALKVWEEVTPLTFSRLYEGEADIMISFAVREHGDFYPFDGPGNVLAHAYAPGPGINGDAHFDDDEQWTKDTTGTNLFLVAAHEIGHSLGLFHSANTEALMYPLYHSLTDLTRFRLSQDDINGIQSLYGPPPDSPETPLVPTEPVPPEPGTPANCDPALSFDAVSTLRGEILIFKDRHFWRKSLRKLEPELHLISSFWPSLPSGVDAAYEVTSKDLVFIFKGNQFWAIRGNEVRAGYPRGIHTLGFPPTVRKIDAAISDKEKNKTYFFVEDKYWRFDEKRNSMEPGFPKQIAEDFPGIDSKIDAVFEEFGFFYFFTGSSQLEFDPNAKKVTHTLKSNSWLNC
Test [8] concerns the target Neutrophil collagenase (Homo sapiens) (UniProt P22894). The conditions noted are these: at 1 mM.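 Also: recombinant human MMP8 enzyme, percent inhibition read after 30 min.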
Test [9] concerns the target T5, Tyrosinase (Agaricus bisporus) (UniProt O42713).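 Also: inhibition measured at 10 min.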
T5 sequence (whole entry): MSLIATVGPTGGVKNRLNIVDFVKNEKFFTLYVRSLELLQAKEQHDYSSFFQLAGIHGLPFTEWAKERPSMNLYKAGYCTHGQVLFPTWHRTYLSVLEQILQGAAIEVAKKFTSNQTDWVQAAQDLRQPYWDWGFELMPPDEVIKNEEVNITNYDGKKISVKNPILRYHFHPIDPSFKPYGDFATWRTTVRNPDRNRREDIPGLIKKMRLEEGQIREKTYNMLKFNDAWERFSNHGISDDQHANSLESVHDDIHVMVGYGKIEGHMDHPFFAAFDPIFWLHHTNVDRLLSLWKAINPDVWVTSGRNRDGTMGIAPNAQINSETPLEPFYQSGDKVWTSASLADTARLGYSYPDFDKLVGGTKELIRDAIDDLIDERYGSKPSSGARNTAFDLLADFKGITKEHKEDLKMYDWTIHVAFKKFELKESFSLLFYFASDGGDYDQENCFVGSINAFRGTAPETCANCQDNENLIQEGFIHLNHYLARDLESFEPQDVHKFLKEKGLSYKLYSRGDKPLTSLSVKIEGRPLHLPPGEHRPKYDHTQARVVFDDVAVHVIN
The following applies: at 1 mM.

Chain of Neutrophil collagenase (Homo sapiens) (P22894 101-467 limits assumed): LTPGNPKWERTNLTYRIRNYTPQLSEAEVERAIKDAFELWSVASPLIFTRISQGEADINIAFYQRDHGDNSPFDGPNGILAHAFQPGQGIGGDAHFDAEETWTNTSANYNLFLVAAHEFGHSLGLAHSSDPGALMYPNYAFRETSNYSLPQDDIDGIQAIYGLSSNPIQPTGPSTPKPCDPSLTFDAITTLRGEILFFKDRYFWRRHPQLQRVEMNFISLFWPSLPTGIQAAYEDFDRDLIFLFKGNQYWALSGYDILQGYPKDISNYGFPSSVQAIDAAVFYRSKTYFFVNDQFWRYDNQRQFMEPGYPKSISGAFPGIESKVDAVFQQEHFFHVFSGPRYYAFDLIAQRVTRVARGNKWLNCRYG
Chain of 72 kDa type IV collagenase (P08253 110-660 limits assumed): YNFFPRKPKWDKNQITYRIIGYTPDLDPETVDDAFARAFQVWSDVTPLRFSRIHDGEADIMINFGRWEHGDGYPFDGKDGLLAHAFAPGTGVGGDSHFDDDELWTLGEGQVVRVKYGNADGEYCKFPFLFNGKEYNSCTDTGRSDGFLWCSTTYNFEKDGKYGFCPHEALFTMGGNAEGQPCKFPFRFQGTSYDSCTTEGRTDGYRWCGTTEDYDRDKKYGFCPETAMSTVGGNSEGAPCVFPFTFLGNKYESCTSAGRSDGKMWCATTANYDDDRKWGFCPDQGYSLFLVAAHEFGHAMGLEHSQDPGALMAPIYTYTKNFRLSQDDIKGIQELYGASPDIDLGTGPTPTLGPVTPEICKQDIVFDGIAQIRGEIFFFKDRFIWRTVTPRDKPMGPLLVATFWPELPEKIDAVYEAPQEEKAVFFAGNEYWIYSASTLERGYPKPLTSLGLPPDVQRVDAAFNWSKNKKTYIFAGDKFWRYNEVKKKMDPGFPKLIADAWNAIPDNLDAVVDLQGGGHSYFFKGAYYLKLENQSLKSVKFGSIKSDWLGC
Chain of Matrix metalloproteinase-9 (Homo sapiens) (P14780 whole entry): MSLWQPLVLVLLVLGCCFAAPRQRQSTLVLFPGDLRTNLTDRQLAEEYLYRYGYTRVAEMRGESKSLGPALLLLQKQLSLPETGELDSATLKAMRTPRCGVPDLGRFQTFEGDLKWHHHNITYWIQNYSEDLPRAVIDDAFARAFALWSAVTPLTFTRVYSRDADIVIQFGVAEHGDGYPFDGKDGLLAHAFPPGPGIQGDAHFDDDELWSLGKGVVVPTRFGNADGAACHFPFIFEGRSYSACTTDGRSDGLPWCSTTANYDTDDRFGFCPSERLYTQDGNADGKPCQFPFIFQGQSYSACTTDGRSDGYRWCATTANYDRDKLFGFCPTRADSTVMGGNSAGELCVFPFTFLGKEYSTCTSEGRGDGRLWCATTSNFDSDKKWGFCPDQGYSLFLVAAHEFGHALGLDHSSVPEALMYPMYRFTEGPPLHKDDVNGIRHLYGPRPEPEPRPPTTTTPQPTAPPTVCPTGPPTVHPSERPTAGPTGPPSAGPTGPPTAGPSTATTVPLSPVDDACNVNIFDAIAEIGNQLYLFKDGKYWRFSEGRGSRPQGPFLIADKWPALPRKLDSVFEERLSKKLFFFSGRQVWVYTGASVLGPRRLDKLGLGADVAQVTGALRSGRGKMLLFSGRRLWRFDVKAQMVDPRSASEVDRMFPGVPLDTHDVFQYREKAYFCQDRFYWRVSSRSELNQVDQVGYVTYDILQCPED

Turning to `Oc1ccccc1O`, the inhibition in test [1] turned out to be 10%; in [2], 28%; in test [3] it was 47%; in test [4], 25%; in test [5], 10%; in test [6], 89%. The inhibition in test [7] worked out at 1%; in [8], 31%.
`c1cnc2c(c1)ccc1cccnc12`: the inhibition in test [1] came out at 100%; in test [2], 30%; in test [3] it was 67%; in [4], 71%; in test [5], 86%; in [6], 4%. Further, the results for the inhibition in [7] and in test [8] were 91% and 100%, respectively.
As for `OCc1ccnc(-c2cc(CO)ccn2)c1`, the inhibition worked out at 77% in [1]; 21% in [2]; 9% in test [3]; 72% in [4]; 58% in [5]; 41% in test [6]. Also, the inhibition in test [7] is 96%; in [8] it was 100%.
Regarding `Cc1ccc2cccc(O)c2n1`, the inhibition was found to be 65% in [1]; 7% in test [2]; 44% in test [3]; 47% in test [4]; 34% in test [5]; 59% in test [6]. Also, the inhibition in [7] was 71%; in test [8], 63%.
Consider `O=c1cc(CO)occ1O`, for which the inhibition in [1] is 52%; in test [2], -4%; in test [3] it was 33%; in test [4], 59%; in test [5] it was 49%; in [6], 84%. For the same compound, the inhibition in [7] worked out at 62%; in test [8], 51%.
Turning to `Oc1cccnc1O`, the inhibition was 0% in test [2]; 8% in test [4]; 21% in test [5]; 90% in test [6]; -7% in test [7]; 7% in test [8]. Also, in test [9], the inhibition is -9%.
With `NC(=O)c1ccccc1O`, the inhibition in [1] is -1%; in [2], 14%; in test [3], 0%; in [4] it was 21%; in [5], 23%; in test [7], 1%. The inhibition was 24% in [8] and -8% in test [9].
With `CC(C)c1cccc(=O)c(O)c1`, the inhibition stood at 90% in test [1]; 18% in test [2]; 66% in test [3]; 95% in [4]; 99% in [5]; 98% in [7]. For the same compound, the inhibition in test [8] turned out to be 100%; in test [9], 54%.
For the compound `CCc1c(O)c(=O)ccn1C`, the inhibition turned out to be 32% in test [1]; 1% in test [2]; 4% in [3]; 34% in test [4]; 13% in [5]; 78% in test [6]. The inhibition in test [7] was 20%; in test [8], 34%.
Take `CCc1c(O)c(=O)ccn1CC`: the inhibition in [1] was 17%; in [2], 8%; in [4] it was 25%; in test [5], 15%; in test [6], 83%; in [7], 9%. In addition, in test [8], the inhibition stood at 31%.
For `COc1ccccc1O`, the inhibition is -5% in test [1]; 13% in test [2]; 13% in test [3]; 8% in test [4]; -6% in [5]; 60% in test [6]. The inhibition in test [7] was -4%; in test [8] it was 4%.
`Nc1ccc2cccc(O)c2n1`: the inhibition in [1] stood at 100%; in test [2], 38%; in test [3], 59%; in [4] it was 96%; in test [5], 100%; in [6] it was 66%. In addition, the results for the inhibition in [7] and in test [8] were 87% and 91%, respectively.
